From patent publication US20040057926A1, “Modulation of the immune response through the manipulation of arginine levels” (LSU Medical Center, priority 2002, published 2004)

B1: CagA: recombinant H. pylori protein CagA (protein, UniProt P55980 1-1186, looked up)
Cytotoxicity-associated …: MTNETIDQTRTPDQTQSQTAFDPQQFINNLQVAFIKVDNVVASFDPDQKPIVDKNDRDNRQAFDGISQLREEYSNKAIKNPTKKNQYFSDFIDKSNDLINKDNLIDVESSTKSFQKFGDQRYQIFTSWVSHQKDPSKINTRSIRNFMENIIQPPIPDDKEKAEFLKSAKQSFAGIIIGNQIRTDQKFMGVFDESLKERQEAEKNGGPTGGDWLDIFLSFIFNKKQSSDVKEAINQEPVPHVQPDIATTTTDIQGLPPEARDLLDERGNFSKFTLGDMEMLDVEGVADIDPNYKFNQLLIHNNALSSVLMGSHNGIEPEKVSLLYAGNGGFGDKHDWNATVGYKDQQGNNVATLINVHMKNGSGLVIAGGEKGINNPSFYLYKEDQLTGSQRALSQEEIRNKVDFMEFLAQNNTKLDNLSEKEKEKFQNEIEDFQKDSKAYLDALGNDRIAFVSKKDTKHSALITEFNNGDLSYTLKDYGKKADKALDREKNVTLQGSLKHDGVMFVDYSNFKYTNASKNPNKGVGATNGVSHLEAGFNKVAVFNLPDLNNLAITSFVRRNLENKLTAKGLSLQEANKLIKDFLSSNKELAGKALNFNKAVAEAKSTGNYDEVKKAQKDLEKSLRKREHLEKEVEKKLESKSGNKNKMEAKAQANSQKDEIFALINKEANRDARAIAYTQNLKGIKRELSDKLEKISKDLKDFSKSFDEFKNGKNKDFSKAEETLKALKGSVKDLGINPEWISKVENLNAALNEFKNGKNKDFSKVTQAKSDLENSVKDVIINQKVTDKVDNLNQAVSVAKAMGDFSRVEQVLADLKNFSKEQLAQQAQKNEDFNTGKNSELYQSVKNSVNKTLVGNGLSGIEATALAKNFSDIKKELNEKFKNFNNNNNGLKNSTEPIYAKVNKKKTGQVASPEEPIYTQVAKKVNAKIDRLNQIASGLGGVGQAAGFPLKRHDKVDDLSKVGLSASPEPIYATIDDLGGPFPLKRHDKVDDLSKVGRSRNQELAQKIDNLNQAVSEAKAGFFGNLEQTIDKLKDSTKKNVMNLYVESAKKVPASLSAKLDNYAINSHTRINSNIQNGAINEKATGMLTQKNPEWLKLVNDKIVAHNVGSVSLSEYDKIGFNQKNMKDYSDSFKFSTKLNNAVKDIKSGFTHFLANAFSTGYYCLARENAEHGIKNVNTKGGFQKS

Tested on: Jurkat cells
Test: Co-culture in transwells of stimulated PM and Jurkat cells, CD3ζ expression
Type: cell-based
Conditions: NOHA 100 μM, Nor-NOHA 50 μM, L-Arg 2 mM, L-NIL 5 μg/ml, catalase 200 U/ml, L-NMMA, L-NNA, L-NAME 1 mM
Method: PM were cultured in 6 well plates in RPMI containing 150 μM L-Arg and stimulated with murine rIL-4 (50 U/ml) and murine rIL-13 (50 ng/ml), or murine rIFN-γ (100 U/ml) for 24 hours. Then 1×10^6 normal T-cells stimulated with anti-CD3 plus anti-CD28 or 1×10^6 Jurkat cells, were cultured in the top chamber of a transwell system having 0.4 μm pores (Falcon, Franklin lakes, N.J.). CD3ζ expression was measured in Jurkat cells or T lymphocytes at different time points. PM were detached using trypsin/EDTA and the expression of protein and RNA for CAT-2B, ASE I, ASE II and iNOS was tested by western blot and northern blot respectively. Cytoplasmic extracts from PM were used to test ASE activity. Supernatants from stimulated PM were used to measure NO production using the Griess reagent method (Molecular Probes, Eugene, Oreg.). In addition, the extra-cellular concentration of L-Arg was tested in supernatants by HPLC (Dr. Gu Yao Wu laboratory, University of Texas) as described previously. O'Quinn, P. R., D. A. Knabe, and G. Wu. 2002. Arginine catabolism in lactating porcine mammary tissue. J Anim Sci. 80:467-474.
Flow cytometry analysis was performed as previously described. Taheri, F., J. B. Ochoa, Z. Faghiri, K. Culotta, H. J. Park, M. S. Lan, A. H. Zea, and A. C. Ochoa. 2001. L-Arginine regulates the expression of the T-cell receptor zeta chain (CD3zeta) in Jurkat cells. Clin Cancer Res 7:958s-965s. Briefly, 5×10^5 Jurkat cells or T lymphocytes were washed once with Dulbecco phosphate-buffered saline 1× (D-PBS) and resuspended in 200 μL of D-PBS containing 1 μg of anti-CD3ε or isotype control. Cells were incubated for 15 min at 4° C., washed with D-PBS and resuspended in 200 μl D-PBS containing 500 μg/ml of digitonin plus 1 μg of anti-CD3ζ or 1 μg of isotypic control. Cells were incubated for 8 minutes after which they were washed and resuspended in 400 μl of D-PBS. Fluorescence acquisition and analysis were done using a Coulter-EPICS XL flow cytometer (Beckman-Coulter) with a 488 nm argon laser. The data were expressed as mean channel fluorescence intensity (MFI).
With `COC(=O)[C@@H](N)CCCNC(=N)N[N+](=O)[O-]` [L-NAME, N-NO2-L-Arg-OMe] the “CD3ζ in Jurkat cells co-cultured with PM stimulated with IL-4+IL-13” value (“CD3ζ in Jurkat cells co-cultured” for short) was “did not prevent CD3ζ decrease”.
For `CC(=N)NCCCC[C@H](N)C(=O)O` [L-NIL], the “CD3ζ in Jurkat cells co-cultured” value was “did not prevent CD3ζ down-regulation”.
With `N=C(NCCC[C@H](N)C(=O)O)N[N+](=O)[O-]` [L-NNA, N-NO2-L-Arg] the “CD3ζ in Jurkat cells co-cultured” value was “did not prevent CD3ζ decrease”.
For `CNC(=N)NCCC[C@H](N)C(=O)O` [NMMA, L-mono-methyl-L-Arg], the “CD3ζ in Jurkat cells co-cultured” value was “partially prevented the CD3ζ down-regulation”.
In the case of Catalase, the “CD3ζ in Jurkat cells co-cultured” value is reported as “did not prevent the decrease of CD3ζ”.

Same assay, conditions: data not shown
For `NCCC[C@H](N)C(=O)O` [L-ornithine], the “induction of CD3ζ down-regulation by excess of the substance” value was “did not induce CD3ζ down-regulation”.
In the case of `NC(N)=O` [urea], the “induction of CD3ζ down-regulation by excess of the substance” value is reported as “did not induce CD3ζ down-regulation”.

Tested on: T-cells
Test: Lysosome and proteasome inhibition, CD3ζ expression in T-cells
Type: cell-based, human
Conditions: lactacystin 2.5 μM, bafylomycin A1 1 μM
Method: To inhibit lysosome function 2×10^6 T-cells cultured in the presence or absence of L-arginine, were treated with 1 μM bafylomycin A1 (Calbiochem, San Diego, Calif.) or 1 μM folimycin (Calbiochem) during the course of the experiments begining at time 0 (start of the cultures), 24, 48 and 72 hours after stimulation. To inhibit proteasome activity 2.5 μM lactacystin (Calbiochem) was added to the cultures at the same time points. DMSO was used as a control vehicle in all the cases. The CD3ζ expression was tested by flow cytometry 24 hours after the addition of the inhibitors.
In the case of `CO/C1=C\C(C)=C\[C@@H](C)[C@@H](O)[C@@H](C)C/C(C)=C/C=C/[C@H](OC)[C@@H]([C@@H](C)[C@@H](O)[C@H](C)[C@@]2(O)C[C@@H](O)[C@H](C)[C@@H](C(C)C)O2)OC1=O` [bafilomicyn, bafylomycin A1], the “decrease of CD3ζ upon stimulation with proteosome or lysosome inhibitor” value is reported as “failed to prevent the decrease of CD3ζ upon stimulation”.
In the case of `CC(=O)N[C@@H](CSC(=O)[C@]1([C@@H](O)C(C)C)NC(=O)[C@H](C)[C@@H]1O)C(=O)O` [lactacystin], the “decrease of CD3ζ upon stimulation with proteosome or lysosome inhibitor” value is reported as “failed to prevent the decrease of CD3ζ upon stimulation”.

Tested on: not given
Test: not given
Type: cell-based
Conditions: within 24 h, trypan blue exclusion
Method: To further explore possible mechanisms leading to a decreased T-cell response induced by the H. pylori sonicate, various aspects of T-cell signal transduction were studied. […] The expression of the CD3ζ chain, the main signaling element of the T-cell antigen receptor, were then tested. […] Harris, P. R., et al. J. Infect. Dis. 178, pp. 1516-1520 (1998); Zhang, Q. B., et al. Gut 38, pp. 841-845 (1996). Therefore some of these H. pylori proteins were tested to determine whether they could reduce CD3ζ expression. The recombinant proteins CagA, VacA, urease A (UreA), urease B (UreB) were titrated up to 10 μg/ml, a concentration where they caused cell death within 24 h as determined by trypan blue exclusion. […] Harris, P. R., et al. J. Infect. Dis. 178, pp. 1516-1520 (1998); Pai, R., et al. Biochem. Biophys. Res. Commun. 262, pp. 245-250 (1999); Rudnicka, W., et al. J. Physiol Pharmacol. 49, pp. 111-119 (1998); Tanahashi, T., et al. Infect. Immun. 68, pp. 664-671 (2000).
In the case of `NC(N)=O` [urea], the “concentration where they caused cell death” value is reported as 10000 ng/mL.
With UreB: recombinant H. pylori urease B the “concentration where they caused cell death” value was 10000 ng/mL.
In the case of B1, the “concentration where they caused cell death” value is reported as 10000 ng/mL.
